Data as given in patent US20240076347A1, “METHODS FOR PREVENTING FUNGAL INFECTIONS” (Cidara Therapeutics, Inc., priority 2016, published 2024).
Where two headings read alike, the source gives them in different places. Numbered stars: 1 amine (or outer) side, 2 acyl side, 3 side chain; on linkers, the order of the positions; unused ones are H or OH. Bridge positions count the residues as written; N and C are the ends. Square brackets hold non-standard residues; d marks the D form. Peptide text beside a SMILES is read from it. * marks the point of attachment. ξ: configuration not given here. Orn(4R-OH,5R-OCH2CH2NMe3+) = C[N+](C)(C)CCO[C@@H](N[*:3])[C@H](O)C[C@H](N[*:1])C(=O)[*:2]; pTerphenylCO(4''-OnC5H11) = CCCCCOc1ccc(-c2ccc(-c3ccc(C(=O)*)cc3)cc2)cc1; hTyr(3S-OH,4S-OH) = N[C@H](C(=O)O)[C@H](O)[C@@H](O)c1ccc(O)cc1; X1 = C[C@H]1CN([*:1])C(C(=O)[*:2])C1O; Hyp = O=C(O)[C@@H]1C[C@@H](O)CN1; ξT = CC(O)C(N)C(=O)O

Legend:
[1] = tested on: Candida albicans ATCC SC5314; experiment: MIC used for free drug plasma concentration over MIC, candidiasis model; assay type: cell-based
Pneumocystis murina = Pneumocystis murina mouse prophylaxis study, lung nuclei and asci counts; assay type: in vivo
Experimental: C3H/HeN mice (Charles River) were infected with P. murina by intranasal inoculation of P. murina organisms at 2×10^6/50 μl from a liquid nitrogen repository. Prior to inoculation, the P. murina were pre-incubated overnight in RPMI 1640 medium supplemented with calf serum and antibiotics to eliminate any bacterial contamination. The immune systems of the mice were suppressed by the addition of dexamethasone at 4 μ[…] to acidified drinking water (sulfuric acid at 1 ml/liter). Acidification is used to prevent secondary microbial infections. The mice were divided into a negative control group (control steroid-C/S), positive control group (trimethoprim/sulfamethoxazole-TMP/SMX) and treatment groups. Drugs to be tested were administered intraperitoneally (IP) on a mg/kg/d basis; dose, route, and frequency of administration varied depending on the agent being tested. […] Immune suppression and treatment continued for the entire 6 week study. At that time, the mice were euthanized by CO2 and lungs processed for analysis by homogenization. Slides were made from the lung homogenates at different dilutions and stained with Diff-Quik to quantify the trophic forms and cresyl echt violet to quantify the asci. Efficacy is based on the reduction of organism burden between the treatment groups and the negative control group was determined by microscopic evaluation. The nuclei and asci counts for each lung were log transformed and statistical analysis was determined by the analysis of variance (ANOVA); individual groups were compared by the Student-Newman-Keuls t test for multiple comparisons using GraphPad Prism.

[2] = tested on: C. albicans SC-5314 biofilms; experiment: Adhesion phase biofilms (prevention) on silicone elastomer discs; assay type: cell-based, Candida albicans
Experimental: (§1) Biofilms were formed on silicone elastomer (SE) discs using a catheter-associated-biofilm model (Chandra et al., Nature Protocols 3:1909, 2008; Chandra et al., J. […] Chandra et al., J. Dental Research 80: 903, 2001). For evaluation of activity against adhesion phase biofilms (prevention), Candida cells were adhered to catheter discs for 90 min. […] Discs incubated with fluconazole or media alone were used as controls in all experiments. […] Chandra et al., J. […] Chandra et al., J. Dental Research 80: 903, 2001). Following incubation with drugs, discs were transferred to fresh plates containing phosphate buffered saline with XTT and menadione, incubated for 3 h at 37° C. and optical density was read at 492 nm. Separate batches of biofilms were stained with fluorescent dyes (FUN1™, CONA) and observed under Confocal Scanning Laser Microscope (CSLM) to evaluate biofilm architecture and thickness (Chandra et al., Nature Protocols 3:1909, 2008; Chandra et al., J. […] Statistical analyses for all data were performed using GraphPad Prism 6 software. Drug treated groups were compared to control untreated groups using unpaired t-tests.

[3] = tested on: C. albicans SC-5314 biofilms; experiment: Mature phase biofilms (treatment) on silicone elastomer discs; assay type: cell-based, Candida albicans
Experimental: as §1

[4] = Monkey pharmacokinetics, SC and IV administration; assay type: in vivo, cynomolgus monkeys; details: for half-life / AUC(0-t) / Cmax / Tmax / AUC(0-inf): cynomolgus monkey, plasma
Experimental: Therefore, only local tolerability (and PK) of CD101 by SC administration required evaluation. […] Plasma concentrations were then quantified by liquid chromatography with tandem mass spectrometric detection (LC-MS/MS). Bioavailability from SC dosing was calculated by comparing the calculated area under the concentration-time profile (AUC) from SC against the AUC from IV administration of the same dose.

[5] = Clinical pharmacokinetics in healthy adults (Phase 1); assay type: in vivo, human; details: for average 24 h AUC (free drug) over a 7 day period / free drug AUC0-168: human
Source text: The in vitro activity of CD101 was previously evaluated as part of the SENTRY international surveillance program using CLSI broth microdilution methodology (M38-A2, M27-A3; Pfaller, et al 2017). […] These susceptibility data were then compared graphically to CD101 plasma concentrations from studies in healthy adults, adjusted for plasma protein binding. Nonclinical efficacy in a murine model of Pneumocystis pneumonia were also considered to evaluate CD101 doses for clinical investigation of antifungal prophylaxis.

C. parapsilosis = experiment: In vitro susceptibility testing (CLSI M27-A3); assay type: cell-based, Candida parapsilosis; details: Lodderomyces parapsilosis, 24 h
Experimental: Strains. Ten clinical Candida strains were used for the in vivo treatment studies, including four C. albicans, three C. glabrata, and three C. parapsilosis strains (Table 18). This group was selected to encompass phenotypic variability in susceptibility to triazoles and echinocandins and based on similar fitness in the animal model as defined by the amount of growth in control animals over 24 h. The organisms were maintained, grown, and quantified on Sabouraud's dextrose agar (SDA) plates.
In vitro susceptibility testing. All isolates were tested in accordance with the standards in CLSI document M27-A3. The MICs were determined visually after 24 h of incubation as the lowest concentration of drug that causes a significant diminution (≥50%) of growth compared to controls. MICs were determined on three separate occasions in duplicate.

[6] = tested on: A. fumigatus clinical isolates; details: SENTRY surveillance (Pfaller, et al 2017); cited from earlier work
[7] = tested on: Candida albicans clinical isolates; details: SENTRY surveillance (Pfaller, et al 2017); cited from earlier work
[8] = 0.25 and 1 μg/ml, 24 h, vs untreated, P<0.05
[9] = both sexes, sc, Subcutaneous, 30 mg/kg
[10] = female, animal 9707, F, 30 mg/kg SC single dose
[11] = male, animal 9697, M, 30 mg/kg SC single dose

## CCCCCOc1ccc(-c2ccc(-c3ccc(C(=O)N[C@H]4C[C@@H](O)[C@@H](OCC[N+](C)(C)C)NC(=O)C5C(O)[C@@H](C)CN5C(=O)[C@H]([C@@H](C)O)NC(=O)[C@H]([C@H](O)[C@@H](O)c5ccc(O)cc5)NC(=O)[C@@H]5C[C@@H](O)CN5C(=O)C(C(C)O)NC4=O)cc3)cc2)cc1 (stereo partly drawn) [CD101] ({pTerphenylCO(4''-OnC5H11)}-[Orn(4R-OH,5R-OCH2CH2NMe3+)][ξT][Hyp][hTyr(3S-OH,4S-OH)]T[X1]; lactam 1-C)
[1]
  MIC: 0.03 µg/mL
Pneumocystis murina; 5 CD101 treatment groups vs positive control TMP/SMX
  asci levels (lung): no difference in efficacy
Pneumocystis murina; IP, all CD101 treatment groups, 6 weeks, vs negative control
  asci levels (lung): statistically significant reduction in asci levels
Pneumocystis murina; IP, all dose levels except 0.2 mg/kg/1×/week, 6 weeks, vs negative control
  nuclei levels (lung): statistically significant reduction in nuclei levels
Pneumocystis murina; mice
  human equivalent doses preventing Pneumocystis pneumonia in mice: < 50 mg
Pneumocystis murina; three of the CD101 treatment groups, 6 weeks
  nuclei levels (lung): equally as efficacious as the positive control TMP/SMX
[2]; 0.25 and 1 μg/ml
  biofilm architecture (CSLM): only remnants of adhered cells, and no biofilm maturation
[2]; [8]
  biofilm metabolic activity (XTT): significantly less biofilms
[2]; CD101 exposed, untreated control 36 μm, P<0.05
  thickness of biofilms: 4 μm
[3]; 0.25 and 1 μg/ml
  biofilm architecture (CSLM): eradicated and showed bulged, deformed/broken cells
[3]; [8]
  biofilm metabolic activity (XTT): significantly less metabolic activity
[3]; CD101 exposed, untreated control 43 μm, P<0.05
  thickness of biofilms: 24 μm
[4]; 30 mg/kg SC
  time at which maximum plasma concentration was reached: > 24 h
[4]; 30 mg/kg SC vs IV
  bioavailability (SC vs IV total exposure over 10 days): 80%
[4]; both sexes, sc, 30 mg/kg, Subcutaneous
  half-life: ~5.17 days
[4]; [9]
  AUC(0-t): 2460 µg·h/mL
  Cmax: 13400 ng/mL
  Tmax: 72 h
[4]; both sexes, sc, Subcutaneous, 30 mg/kg, read-out: AUCinf
  AUC(0-inf): 3520 µg·h/mL
[4]; iv, 30 mg/kg
  AUC(0-t): 3140 µg·h/mL
  Cmax: 112000 ng/mL
  Tmax: 1 h
  half-life: 2.07 days
[4]; iv, 30 mg/kg, read-out: AUCinf
  AUC(0-inf): 3340 µg·h/mL
[4]; female, sc, 30 mg/kg, animal 9707, F, 30 mg/kg SC single dose
  half-life: 7.12 days
[4]; [10]
  AUC(0-t): 2180 µg·h/mL
  Cmax: 10900 ng/mL
  Tmax: 48 h
[4]; female, animal 9707, F, 30 mg/kg SC single dose, read-out: AUCINF_obs
  AUC(0-inf): 3760 µg·h/mL
[4]; male, sc, 30 mg/kg, animal 9697, M, 30 mg/kg SC single dose
  half-life: 3.18 days
[4]; [11]
  AUC(0-t): 2740 µg·h/mL
  Cmax: 15900 ng/mL
  Tmax: 96 h
[4]; male, animal 9697, M, 30 mg/kg SC single dose, read-out: AUCINF_obs
  AUC(0-inf): 3280 µg·h/mL
[5]; 400 mg and 200 mg
  plasma concentrations relative to MEC90: above the MEC90 for A. fumigatus for 7 days
[5]; Phase 1 subjects, single dose of 400 mg
  mean unbound plasma concentrations relative to MIC90: above the MIC90 for C. albicans for seven days
[5]; 200 mg dose
  average 24 h AUC (free drug) over a 7 day period: ~2.2 mg·h/L
  free drug AUC0-168: 15.4 mg·h/L
[5]; 400 mg dose
  average 24 h AUC (free drug) over a 7 day period: approximately 4.3 mg*h/L
  free drug AUC0-168: 30.2 mg·h/L
C. parapsilosis; strain 20423.072
  MIC: 0.5 µg/mL
C. parapsilosis; strain 20477.048
  MIC: 1 µg/mL
C. parapsilosis; strain 20519.069
  MIC: 1 µg/mL
[6]
  MEC90: 0.015 µg/mL
[7]
  MIC90: 0.06 µg/mL
